Calls of active or inactive are those of the source.
What was measured:
[1] = biological target: Cyclin-dependent kinase 5/CDK5 activator 1 (Homo sapiens, UniProt Q00535); assay: blockade of human CDK5 activity – biochemical, cherry-picked samples, set 2, dose response (AID 504545)
[2] = biological target: Dual specificity tyrosine-phosphorylation-regulated kinase 1A (Rattus norvegicus, UniProt Q63470); assay type: biochemical, Homo sapiens
[3] = biological target: T1, Calpain-2 catalytic subunit (Sus scrofa, UniProt P43367); assay: m-calpain protease blockers, concentration series – biochemical, fluorogenic peptide substrate, dose response (AID 1420); assay type: functional
T1 sequence (P43367 whole entry): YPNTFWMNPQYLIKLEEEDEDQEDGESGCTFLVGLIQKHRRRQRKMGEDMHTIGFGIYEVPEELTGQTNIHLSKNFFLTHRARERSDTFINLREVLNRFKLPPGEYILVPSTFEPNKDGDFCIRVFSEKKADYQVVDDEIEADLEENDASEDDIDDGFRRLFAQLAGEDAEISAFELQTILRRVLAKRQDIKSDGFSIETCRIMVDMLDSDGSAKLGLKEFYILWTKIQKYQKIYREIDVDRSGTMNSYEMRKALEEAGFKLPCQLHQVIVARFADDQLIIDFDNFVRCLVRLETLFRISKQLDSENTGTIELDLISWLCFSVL

Escherichia coli = assay: microbe, parasite or virus in culture
Phospholipase A2 = Phospholipase A2 (Homo sapiens, UniProt P04054); assay type: functional;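 also: confirmatory dose-response counterscreen on phospholipase A2, testing hits that came from an ultra-high-throughput screen for ATG4B inhibitors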
Cysteine protease ATG4B = biological target: T2, Cysteine protease ATG4B (Homo sapiens, UniProt Q9Y4P1); assay type: functional;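 also: Fluorescence-based dose-response confirmation assay measuring inhibition of ATG4B activity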
T2 sequence (Q9Y4P1 whole entry): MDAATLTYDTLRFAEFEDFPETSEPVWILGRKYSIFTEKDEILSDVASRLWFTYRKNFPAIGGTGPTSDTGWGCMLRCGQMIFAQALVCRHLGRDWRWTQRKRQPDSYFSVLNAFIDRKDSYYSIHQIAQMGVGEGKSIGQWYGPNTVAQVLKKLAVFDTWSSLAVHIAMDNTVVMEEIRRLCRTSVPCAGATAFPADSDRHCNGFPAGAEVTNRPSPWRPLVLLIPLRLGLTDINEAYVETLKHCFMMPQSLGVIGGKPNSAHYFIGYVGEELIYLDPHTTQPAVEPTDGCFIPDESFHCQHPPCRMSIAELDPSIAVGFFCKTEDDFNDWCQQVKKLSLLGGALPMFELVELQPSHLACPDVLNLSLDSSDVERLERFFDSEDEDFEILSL

HEK293 [4] = assay: cells; details: Homo sapiens
[5] = viability of uninfected HEp-2 cells – cell-based, HTS, cytotoxicity control for RSV inhibitor project, dose response (AID 2410); assay type: functional; details: human respiratory syncytial virus
HEK293 [6] = assay: cells; details: Homo sapiens; remark: listed apart in the source
[7] = biological target: Induced myeloid leukemia cell differentiation protein Mcl-1 (Homo sapiens, UniProt Q07820); assay type: functional
[8] = biological target: Delta-type opioid receptor (Homo sapiens, UniProt P41143); assay: Counterscreen for agonists of heterodimerization of the mu 1 (OPRM1) and delta 1 (OPRD1) opioid receptors: Luminescence-based cell-based high throughput dose response assay to identify agonists of OPRD1 homodimerization. [Related pubchem assays (depositor defined):AID504326, AID504355, AID504692, AID504904, AID504905]; assay type: functional
Mu-type opioid receptor = Mu-type opioid receptor (Homo sapiens, UniProt P35372); assay: Counterscreen for agonists of heterodimerization of the mu 1 (OPRM1) and delta 1 (OPRD1) opioid receptors: Luminescence-based cell-based high throughput dose response assay to identify agonists of OPRM1 homodimerization.; assay type: functional;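 also: U2OS cells expressing OPRM1 and beta-arrestin as split beta-galactosidase partners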
[9] = biological target: 5-hydroxytryptamine receptor 5A (Homo sapiens, UniProt P47898); assay: Counterscreen for agonists of OPRM1-OPRD1 heterodimerization: luminescence-based cell-based high throughput dose response assay to identify agonists of 5-hydroxytryptamine (serotonin) 5A receptor (HTR5A). [Related pubchem assays (depositor defined):AID504326, AID504355, AID504692, AID504904, AID504905]; assay type: functional
[10] = biological target: T3, Carboxy-terminal domain RNA polymerase II polypeptide A small phosphatase 1 (Homo sapiens, UniProt Q9GZU7); assay: CTDSP1 inhibitors, concentration-response, biochemical, absorbance readout, ultra-high-throughput screen actives (AID 540297); assay type: functional
T3 sequence (Q9GZU7 whole entry): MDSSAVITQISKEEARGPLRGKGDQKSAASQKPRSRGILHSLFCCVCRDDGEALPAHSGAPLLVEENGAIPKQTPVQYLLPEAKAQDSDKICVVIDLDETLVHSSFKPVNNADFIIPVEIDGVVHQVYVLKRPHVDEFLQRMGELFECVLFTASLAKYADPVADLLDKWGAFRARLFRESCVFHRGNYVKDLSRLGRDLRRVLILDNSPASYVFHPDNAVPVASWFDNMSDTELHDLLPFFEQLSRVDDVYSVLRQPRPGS

[11] = test system: Streptococcus sp. 'group A'; assay: Streptococcus pyogenes SK(-)GAS viability under kanamycin – luminescence, BacTiterGlo, confirmation, counter-screen for streptokinase expression inhibitor project, dose response (AID 1900); assay type: functional, organism-based
Streptokinase A = biological target: T4, Streptokinase A (Streptococcus pyogenes serotype M1, UniProt P10520); assay: viability-normalized secreted streptokinase activity reduction – plasminogen activation absorbance, OD405, dose response (AID 1914); assay type: functional, Streptococcus pyogenes M1 GAS;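 also: secreted streptokinase activity via plasminogen activation per viability signal from cell pellet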
T4 sequence (P10520 whole entry): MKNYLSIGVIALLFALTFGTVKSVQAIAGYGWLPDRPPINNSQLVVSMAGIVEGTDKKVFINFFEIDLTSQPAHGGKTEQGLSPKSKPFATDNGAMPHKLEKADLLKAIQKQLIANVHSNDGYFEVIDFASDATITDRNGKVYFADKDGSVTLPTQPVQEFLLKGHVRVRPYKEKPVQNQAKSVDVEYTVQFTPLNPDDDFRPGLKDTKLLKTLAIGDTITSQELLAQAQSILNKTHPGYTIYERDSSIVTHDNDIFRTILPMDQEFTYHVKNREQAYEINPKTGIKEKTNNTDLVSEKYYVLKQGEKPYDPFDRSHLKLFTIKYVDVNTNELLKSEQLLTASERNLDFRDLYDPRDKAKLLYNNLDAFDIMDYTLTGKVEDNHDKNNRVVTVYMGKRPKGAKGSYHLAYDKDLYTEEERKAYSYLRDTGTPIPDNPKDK

Streptococcus = assay: GAS UMAA2166 growth inhibition – luminescence, BacTiterGlo, counter-screen for streptokinase expression inhibitor project, dose response (AID 1915); assay type: functional, organism-based;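 also: potency for reduction of bacterial viability or growth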
[12] = Luminescence Cell-Based Dose Retest to Confirm Inhibitors of Cancer Stem Cells. [Related pubchem assays (depositor defined):AID2717, AID2721]; assay type: functional; details: Homo sapiens
[13] = viability loss of HMLE_sh_eGFP cells – cell-based, luminescence, counter-screen for HMLE_sh_ECad selective toxicity project, dose response (AID 463074); assay type: functional, Homo sapiens;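 also: HMLE human mammary epithelial cells expressing control shRNA against eGFP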
Beta-galactosidase = Beta-galactosidase (Escherichia coli, UniProt Q8VNN2); assay: PubChem AID 485352; assay type: functional
[14] = biological target: T5, Type-1 angiotensin II receptor (Homo sapiens, UniProt P30556); assay: antagonism of angiotensin II type 1 receptor – cell-based, uHTS hits, selectivity assay for APJ receptor antagonist project, dose response (AID 463214); assay type: functional;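 also: antagonist potency against angiotensin II stimulated AT1 response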
T5 sequence (P30556 whole entry): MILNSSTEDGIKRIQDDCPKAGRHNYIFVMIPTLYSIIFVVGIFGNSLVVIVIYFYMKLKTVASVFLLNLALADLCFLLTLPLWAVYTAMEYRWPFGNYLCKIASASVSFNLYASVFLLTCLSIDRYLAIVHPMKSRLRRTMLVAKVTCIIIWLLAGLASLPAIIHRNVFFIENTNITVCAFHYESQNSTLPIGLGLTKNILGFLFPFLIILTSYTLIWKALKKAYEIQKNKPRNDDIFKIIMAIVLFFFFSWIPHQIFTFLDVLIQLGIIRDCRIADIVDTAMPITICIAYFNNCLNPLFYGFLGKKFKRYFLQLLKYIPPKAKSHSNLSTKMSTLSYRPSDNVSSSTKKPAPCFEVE

[15] = biological target: T6, Intestinal-type alkaline phosphatase (Homo sapiens, UniProt P09923); assay: inhibition of human intestinal alkaline phosphatase – biochemical, dose response (AID 488876); assay type: functional
[16] = biological target: Intestinal-type alkaline phosphatase (Mus musculus, UniProt P24822); assay: PubChem AID 488785; assay type: functional
[17] = biological target: T7, Alkaline phosphatase, tissue-nonspecific isozyme (Homo sapiens, UniProt P05186); assay: TNAP enzyme inhibition by screening hits, dose response, selectivity assay for mouse IAP inhibitor project, biochemical, human TNAP, uHTS hits (AID 488906); assay type: functional
T7 sequence (P05186 whole entry): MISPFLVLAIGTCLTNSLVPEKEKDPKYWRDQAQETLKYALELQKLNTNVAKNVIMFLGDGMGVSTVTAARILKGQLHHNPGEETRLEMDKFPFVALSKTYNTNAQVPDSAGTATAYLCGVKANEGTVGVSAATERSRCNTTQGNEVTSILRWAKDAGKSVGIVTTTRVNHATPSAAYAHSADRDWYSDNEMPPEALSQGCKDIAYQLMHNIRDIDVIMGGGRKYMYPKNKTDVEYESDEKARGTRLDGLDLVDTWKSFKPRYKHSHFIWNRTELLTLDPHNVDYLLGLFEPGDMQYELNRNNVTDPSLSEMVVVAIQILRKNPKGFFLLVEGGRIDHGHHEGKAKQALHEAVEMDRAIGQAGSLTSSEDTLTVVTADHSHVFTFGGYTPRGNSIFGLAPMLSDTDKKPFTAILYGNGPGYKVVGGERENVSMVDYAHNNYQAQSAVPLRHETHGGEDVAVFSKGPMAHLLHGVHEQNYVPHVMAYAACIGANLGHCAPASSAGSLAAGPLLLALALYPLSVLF

Large T antigen = Large T antigen (Simian virus 40, UniProt P03070); assay type: functional, Betapolyomavirus macacae;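 also: Confirmatory-stage PubChem screen for compounds that inhibit SV40 T antigen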
[18] = biological target: T6, Intestinal-type alkaline phosphatase; assay: activation of human intestinal alkaline phosphatase – biochemical, dose response (AID 488873); assay type: functional
[19] = biological target: Heat shock protein HSP 90-alpha (Homo sapiens, UniProt P07900); assay type: functional, organism-based

Chain of Beta-galactosidase (Q8VNN2 whole entry): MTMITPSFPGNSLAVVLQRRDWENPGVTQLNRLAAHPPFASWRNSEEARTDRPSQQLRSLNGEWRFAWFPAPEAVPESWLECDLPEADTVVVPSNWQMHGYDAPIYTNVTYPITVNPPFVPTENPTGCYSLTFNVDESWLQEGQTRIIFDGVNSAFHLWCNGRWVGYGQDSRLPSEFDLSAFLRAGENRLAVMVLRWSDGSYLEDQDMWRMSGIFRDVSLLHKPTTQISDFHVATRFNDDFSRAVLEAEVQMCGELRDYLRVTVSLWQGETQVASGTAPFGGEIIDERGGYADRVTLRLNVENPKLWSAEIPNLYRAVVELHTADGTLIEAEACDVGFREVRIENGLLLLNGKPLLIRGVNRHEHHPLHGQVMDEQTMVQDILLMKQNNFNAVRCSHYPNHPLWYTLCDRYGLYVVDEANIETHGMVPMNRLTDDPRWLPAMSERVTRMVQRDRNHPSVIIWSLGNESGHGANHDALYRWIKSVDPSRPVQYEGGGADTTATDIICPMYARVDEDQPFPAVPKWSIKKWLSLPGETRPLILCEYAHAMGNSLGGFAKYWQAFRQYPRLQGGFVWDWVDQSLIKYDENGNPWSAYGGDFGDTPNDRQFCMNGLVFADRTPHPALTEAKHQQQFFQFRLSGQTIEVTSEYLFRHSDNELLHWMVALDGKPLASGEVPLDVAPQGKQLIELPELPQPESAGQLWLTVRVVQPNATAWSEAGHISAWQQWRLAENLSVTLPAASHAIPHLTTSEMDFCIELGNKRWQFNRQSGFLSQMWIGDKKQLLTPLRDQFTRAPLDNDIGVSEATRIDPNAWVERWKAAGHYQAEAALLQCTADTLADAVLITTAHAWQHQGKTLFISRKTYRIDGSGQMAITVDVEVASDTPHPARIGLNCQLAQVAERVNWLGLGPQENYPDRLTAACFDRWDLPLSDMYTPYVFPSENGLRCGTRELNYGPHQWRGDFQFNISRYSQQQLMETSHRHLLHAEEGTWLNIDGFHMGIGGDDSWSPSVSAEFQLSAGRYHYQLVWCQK
Chain of Phospholipase A2 (P04054 whole entry): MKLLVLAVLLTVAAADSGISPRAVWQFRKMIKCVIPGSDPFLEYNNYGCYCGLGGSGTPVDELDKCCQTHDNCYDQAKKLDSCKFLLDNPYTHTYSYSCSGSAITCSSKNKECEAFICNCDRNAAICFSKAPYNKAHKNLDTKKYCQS
Chain of 5-hydroxytryptamine receptor 5A (P47898 whole entry, the tested form may be a part): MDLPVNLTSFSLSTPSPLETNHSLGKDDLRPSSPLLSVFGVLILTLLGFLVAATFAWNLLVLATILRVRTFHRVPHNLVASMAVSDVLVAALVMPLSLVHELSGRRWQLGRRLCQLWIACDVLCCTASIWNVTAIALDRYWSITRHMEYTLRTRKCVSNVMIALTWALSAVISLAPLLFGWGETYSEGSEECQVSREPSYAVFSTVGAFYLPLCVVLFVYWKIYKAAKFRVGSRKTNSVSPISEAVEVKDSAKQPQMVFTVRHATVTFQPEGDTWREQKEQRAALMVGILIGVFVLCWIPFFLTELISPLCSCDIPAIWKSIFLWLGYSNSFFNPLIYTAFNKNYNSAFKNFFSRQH
Chain of Delta-type opioid receptor (P41143 whole entry): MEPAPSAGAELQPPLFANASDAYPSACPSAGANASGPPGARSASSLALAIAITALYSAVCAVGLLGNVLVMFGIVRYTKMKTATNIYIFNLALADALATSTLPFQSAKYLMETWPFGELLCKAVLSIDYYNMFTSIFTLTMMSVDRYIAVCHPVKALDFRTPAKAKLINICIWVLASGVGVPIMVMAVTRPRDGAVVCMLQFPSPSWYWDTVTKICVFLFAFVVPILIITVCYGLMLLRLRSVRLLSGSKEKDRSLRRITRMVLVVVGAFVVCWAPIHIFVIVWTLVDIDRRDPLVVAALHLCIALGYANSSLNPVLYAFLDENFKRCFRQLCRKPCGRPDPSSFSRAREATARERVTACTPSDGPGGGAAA
Chain of Intestinal-type alkaline phosphatase (Mus musculus, UniProt P24822) (P24822 whole entry): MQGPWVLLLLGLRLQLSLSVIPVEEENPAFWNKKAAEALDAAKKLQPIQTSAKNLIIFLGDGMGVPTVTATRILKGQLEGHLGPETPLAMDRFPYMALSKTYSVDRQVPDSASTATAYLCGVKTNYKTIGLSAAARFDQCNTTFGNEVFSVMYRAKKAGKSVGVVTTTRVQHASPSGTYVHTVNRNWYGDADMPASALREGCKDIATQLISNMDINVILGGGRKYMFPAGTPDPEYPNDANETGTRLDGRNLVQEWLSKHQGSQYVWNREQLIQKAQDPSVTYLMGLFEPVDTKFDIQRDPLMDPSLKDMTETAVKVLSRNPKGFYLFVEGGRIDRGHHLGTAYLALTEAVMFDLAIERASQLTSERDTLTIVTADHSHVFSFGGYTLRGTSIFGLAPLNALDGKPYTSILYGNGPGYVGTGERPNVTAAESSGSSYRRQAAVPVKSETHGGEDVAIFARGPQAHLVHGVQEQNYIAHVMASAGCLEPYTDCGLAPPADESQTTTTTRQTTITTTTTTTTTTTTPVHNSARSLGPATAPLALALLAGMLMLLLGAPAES
Chain of Mu-type opioid receptor (P35372 whole entry): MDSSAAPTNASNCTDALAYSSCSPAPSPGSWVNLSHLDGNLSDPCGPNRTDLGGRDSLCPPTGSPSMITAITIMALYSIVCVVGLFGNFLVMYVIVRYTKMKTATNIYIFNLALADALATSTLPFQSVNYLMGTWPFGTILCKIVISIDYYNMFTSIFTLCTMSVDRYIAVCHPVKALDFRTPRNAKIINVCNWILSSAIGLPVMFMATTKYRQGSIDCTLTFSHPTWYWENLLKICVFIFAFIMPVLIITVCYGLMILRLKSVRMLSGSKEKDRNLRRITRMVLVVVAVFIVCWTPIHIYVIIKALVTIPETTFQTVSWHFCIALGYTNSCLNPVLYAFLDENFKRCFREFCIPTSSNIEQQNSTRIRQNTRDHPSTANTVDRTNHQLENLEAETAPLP
T6 sequence (P09923 whole entry): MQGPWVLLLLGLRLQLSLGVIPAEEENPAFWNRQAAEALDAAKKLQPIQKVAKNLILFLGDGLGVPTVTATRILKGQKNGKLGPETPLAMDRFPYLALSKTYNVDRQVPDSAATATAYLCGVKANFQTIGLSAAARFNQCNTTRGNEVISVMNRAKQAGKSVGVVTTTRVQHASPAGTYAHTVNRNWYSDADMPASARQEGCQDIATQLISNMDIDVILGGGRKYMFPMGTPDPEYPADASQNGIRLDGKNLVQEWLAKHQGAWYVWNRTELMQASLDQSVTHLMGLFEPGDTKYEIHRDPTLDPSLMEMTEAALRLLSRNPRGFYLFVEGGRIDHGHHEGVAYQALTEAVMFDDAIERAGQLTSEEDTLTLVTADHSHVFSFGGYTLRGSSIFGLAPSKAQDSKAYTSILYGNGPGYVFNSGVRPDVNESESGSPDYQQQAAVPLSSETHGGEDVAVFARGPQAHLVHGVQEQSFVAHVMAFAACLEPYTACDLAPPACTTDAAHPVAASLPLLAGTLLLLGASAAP
Chain of Large T antigen (P03070 whole entry): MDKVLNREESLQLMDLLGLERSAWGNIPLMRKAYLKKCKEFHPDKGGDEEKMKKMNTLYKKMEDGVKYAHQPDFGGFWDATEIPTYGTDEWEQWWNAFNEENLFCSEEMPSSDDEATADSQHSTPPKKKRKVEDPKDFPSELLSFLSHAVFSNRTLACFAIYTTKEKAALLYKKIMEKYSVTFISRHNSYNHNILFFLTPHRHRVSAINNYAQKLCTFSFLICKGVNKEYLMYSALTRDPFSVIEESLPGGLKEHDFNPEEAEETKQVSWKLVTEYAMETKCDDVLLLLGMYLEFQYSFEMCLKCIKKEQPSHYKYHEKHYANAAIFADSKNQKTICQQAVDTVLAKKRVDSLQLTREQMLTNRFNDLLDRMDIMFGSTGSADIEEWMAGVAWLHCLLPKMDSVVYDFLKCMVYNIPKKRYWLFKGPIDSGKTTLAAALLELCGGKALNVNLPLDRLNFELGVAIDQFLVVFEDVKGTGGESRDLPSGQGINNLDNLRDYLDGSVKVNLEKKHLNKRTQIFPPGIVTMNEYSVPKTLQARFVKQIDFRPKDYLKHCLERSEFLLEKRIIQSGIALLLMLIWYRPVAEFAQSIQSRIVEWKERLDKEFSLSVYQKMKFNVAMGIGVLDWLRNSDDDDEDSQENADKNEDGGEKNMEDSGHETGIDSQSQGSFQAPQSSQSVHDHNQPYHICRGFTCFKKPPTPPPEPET
Chain of Induced myeloid leukemia cell differentiation protein Mcl-1 (Q07820 whole entry): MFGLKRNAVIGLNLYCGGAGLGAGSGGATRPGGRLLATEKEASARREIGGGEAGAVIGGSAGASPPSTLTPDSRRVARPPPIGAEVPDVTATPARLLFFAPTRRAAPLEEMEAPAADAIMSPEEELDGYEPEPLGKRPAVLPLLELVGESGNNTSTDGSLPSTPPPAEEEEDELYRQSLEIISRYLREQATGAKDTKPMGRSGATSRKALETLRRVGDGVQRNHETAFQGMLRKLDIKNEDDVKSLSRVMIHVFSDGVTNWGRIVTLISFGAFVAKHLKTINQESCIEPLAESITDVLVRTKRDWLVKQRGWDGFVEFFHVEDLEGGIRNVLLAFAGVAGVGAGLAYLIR

COc1ccc2nc3c(cc2c1)c(NC(=O)c1cccs1)nn3CC(C)C
AC50 [1]: 4.21 µM (active)
AC50 [2]: 430 nM (active)

CCCN(Cc1ccccc1)C(S)=Nc1ccc(SC(F)F)cc1
IC50 [3]: 18.1 µM (not active)
AC50 (Escherichia coli): 41.9 µM (active)

N#Cc1c(NC(=O)C2CC(c3ccccc3Cl)=NO2)sc2c1CCC2 (stereo not given)
IC50 (Phospholipase A2): 3.48 µM (active)
IC50 (Cysteine protease ATG4B): 4.36 µM (active)

CCOc1ccc(C2=CS/C(=C(\C#N)c3nnc4n3CCCCC4)N2CC)cc1
IC50 (Phospholipase A2): 8.21 µM (active)
IC50 (Cysteine protease ATG4B): 13 µM (active)

CC[C@@]12C(=O)N(c3cccc(Br)c3)C(=O)N1[C@H](c1ccc(Cl)cc1)[C@@H]1C(=O)N(C3CCCCC3)C(=O)[C@@H]12
EC50 (HEK293 [4]): > 59.6 µM (inactive)
CC50 [5]: > 50 µM (active)
EC50 (HEK293 [6]): > 59.6 µM (inactive)

COc1cccc(C(=O)Nc2ccc3c(c2)C(=O)c2ccccc2C3=O)c1
IC50 [7]: 1.82 µM (active)
EC50 [8]: > 92.5 µM (inactive)
EC50 (Mu-type opioid receptor): > 92.5 µM (inactive)
EC50 [9]: > 92.5 µM (inactive)
IC50 [10]: 6.16 µM (active)

CCc1nn(CCCC(=O)NCc2ccccc2Br)c(=O)c2cc3occc3n12
EC50 [11]: 1.12 µM (active)
IC50 (Phospholipase A2): 20 µM (inactive)
EC50 (Streptokinase A): > 150 µM (not active)
EC50 (Streptococcus): > 150 µM (not active)
IC50 (Cysteine protease ATG4B): 16.8 µM (active)

Fc1ccc(N/N=C/c2ccncc2)c(F)c1
AC50 [12]: 43.7 µM (active)
AC50 [13]: 102 µM (active)

Cc1ccc(C(=O)COC(=O)c2cnccn2)cc1[N+](=O)[O-]
EC50 (Beta-galactosidase): > 40 µM (inactive)
IC50 [14]: 38.5 µM (not active)

COc1cc(/C=C2\SC(=S)N(N3CCOCC3)C2=O)ccc1O
EC50 (Beta-galactosidase): > 40 µM (inactive)
IC50 [14]: > 40 µM (not active)

CCN(c1ccccc1)S(=O)(=O)c1ccc2[nH]c(=O)[nH]c2c1
IC50 [15]: 33.8 µM (active)
IC50 [16]: 3.89 µM (active)
IC50 [17]: 24.9 µM (active)

O=c1oc2cc(O)ccc2s1 [TIOXOLONE]
EC50 (HEK293 [4]): > 59.6 µM (inactive)
IC50 [16]: 2.59 µM (active)
IC50 (Large T antigen): 19 µM (active)
EC50 (HEK293 [6]): > 59.6 µM (inactive)
IC50 [17]: > 100 µM (inactive)
EC50 [18]: 8.33 µM (active)

COc1ccc(NC(=O)/C(C#N)=C\C=C\c2ccco2)cc1
AC50 [12]: 1.36 µM (active)
AC50 [13]: 23.1 µM (active)

O=C1OCC(CO)(CO)N=C1NNc1ccc(Cl)c(Cl)c1
EC50 (Beta-galactosidase): > 40 µM (inactive)
AC50 [19]: 2.31 µM (active)
IC50 [14]: 16.6 µM (active)

COC(=O)C1=CO[C@@H](C)[C@@H]2CN(CCc3c[nH]c4ccccc34)CC[C@H]12
EC50 [8]: > 92.4 µM (inactive)
EC50 (Mu-type opioid receptor): > 92.4 µM (inactive)
EC50 [9]: > 92.4 µM (inactive)

O=C(Nc1cccc(-c2nn[nH]n2)c1)c1ccc(Cl)s1
AC50 [2]: 1440 nM (active)

— ChEMBL document CHEMBL1201862, “PubChem BioAssay data set” (2004)
